Experimental data published in patent US9738634B2, “Heterocyclic amide compound and herbicide” (SYNGENTA PARTICIPATIONS AG, priority 2013, dated 2017).

Legend:
Format in all cases: in vivo
oval-leafed pondweed [1] = experiment: Test Example 1: weedkilling efficacy, preemergent weed treatment in the submerged state; C: oval-leafed pondweed; settings: treatment dosage 252 g/ha
How it was run: (§1)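 Pots of alluvial soil flooded 4 cm deep, sown with barnyard grass, bulrush and oval-leafed pondweed and transplanted with 2.5-leaf rice. Emulsified compound applied to the water surface on sowing day at stated g/ha; greenhouse 25–30 °C, effects assessed 3 weeks after treatment.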

wild oat [2] = experiment: Test Example 3: weedkilling efficacy through soil treatment; G: wild oat; settings: treatment dosage 315 g/ha
How it was run: (§2)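 Crop and weed responses were judged three weeks after a uniform surface spray of the water-diluted emulsion at the given g/ha rate. Seeds sat beneath about 1.5 cm of sterilized diluvial soil, and boxes stood in a greenhouse at 25 to 30° C.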

transplanted rice = experiment: Test Example 1: preemergent weed treatment in the submerged state, effect on crop; a: transplanted rice; settings: treatment dosage 252 g/ha
How it was run: as §1

green foxtail [3] = experiment: Test Example 3: weedkilling efficacy through soil treatment; E: green foxtail; settings: treatment dosage 315 g/ha
How it was run: as §2

soybean [4] = experiment: Test Example 4: foliar treatment, effect on crop; d: soybean; settings: treatment dosage 315 g/ha
How it was run: (§3)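 Seeds are spot-sown into sterilized diluvial soil and covered with about 1.5 cm of soil. After 14 days' greenhouse growth at 25 to 30° C, plants are sprayed on stems and leaves with diluted emulsion at the stated g/ha rate, then scored at 3 weeks.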

birds-eye speedwell [5] = experiment: Test Example 4: weedkilling efficacy by foliar treatment; p: birds-eye speedwell; settings: treatment dosage 315 g/ha
How it was run: as §3

Indian mallow [6] = experiment: Test Example 4: weedkilling efficacy by foliar treatment; K: Indian mallow; settings: treatment dosage 315 g/ha
How it was run: as §3

black-grass [7] = experiment: Test Example 3: weedkilling efficacy through soil treatment; H: black-grass; settings: treatment dosage 315 g/ha
How it was run: as §2

crabgrass [8] = experiment: Test Example 3: weedkilling efficacy through soil treatment; D: crabgrass; settings: treatment dosage 315 g/ha
How it was run: as §2

bulrush [9] = experiment: Test Example 2: weedkilling efficacy, growth period weed treatment in the submerged state; B: bulrush; settings: treatment dosage 252 g/ha
How it was run: (§4)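 Barnyard grass, bulrush and oval-leafed pondweed sown in alluvial soil under 4 cm flooding, greenhouse 25 to 30° C. At 1-2 leaf stage, water-diluted emulsion applied to the water surface at stated g/ha dosages; effects scored 3 weeks later.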

directly sown rice = experiment: Test Example 4: foliar treatment, effect on crop; b: directly sown rice; settings: treatment dosage 315 g/ha
How it was run: as §3

black-grass [10] = experiment: Test Example 4: weedkilling efficacy by foliar treatment; H: black-grass; settings: treatment dosage 315 g/ha
How it was run: as §3

beet [11] = experiment: Test Example 4: foliar treatment, effect on crop; f: beet; settings: treatment dosage 315 g/ha
How it was run: as §3

chickweed [12] = experiment: Test Example 4: weedkilling efficacy by foliar treatment; N: chickweed; settings: treatment dosage 315 g/ha
How it was run: as §3

oval-leafed pondweed [13] = experiment: Test Example 2: weedkilling efficacy, growth period weed treatment in the submerged state; C: oval-leafed pondweed; settings: treatment dosage 252 g/ha
How it was run: as §4

wild oat [14] = experiment: Test Example 4: weedkilling efficacy by foliar treatment; G: wild oat; settings: treatment dosage 315 g/ha
How it was run: as §3

chickweed [15] = experiment: Test Example 3: weedkilling efficacy through soil treatment; N: chickweed; settings: treatment dosage 315 g/ha
How it was run: as §2

fig-leafed goosefoot [16] = experiment: Test Example 4: weedkilling efficacy by foliar treatment; M: fig-leafed goosefoot; settings: treatment dosage 315 g/ha
How it was run: as §3

Italian ryegrass [17] = experiment: Test Example 3: weedkilling efficacy through soil treatment; I: Italian ryegrass; settings: treatment dosage 315 g/ha
How it was run: as §2

barnyard grass [18] = experiment: Test Example 2: weedkilling efficacy, growth period weed treatment in the submerged state; A: barnyard grass; settings: treatment dosage 252 g/ha
How it was run: as §4

wheat [19] = experiment: Test Example 4: foliar treatment, effect on crop; e: wheat; settings: treatment dosage 315 g/ha
How it was run: as §3

bulrush [20] = experiment: Test Example 1: weedkilling efficacy, preemergent weed treatment in the submerged state; B: bulrush; settings: treatment dosage 252 g/ha
How it was run: as §1

soybean [21] = experiment: Test Example 3: soil treatment, effect on crop; d: soybean; settings: treatment dosage 315 g/ha
How it was run: as §2

catchweed = experiment: Test Example 4: weedkilling efficacy by foliar treatment; O: catchweed; settings: treatment dosage 315 g/ha
How it was run: as §3

beet [22] = experiment: Test Example 3: soil treatment, effect on crop; f: beet; settings: treatment dosage 315 g/ha
How it was run: as §2

redroot pigweed [23] = experiment: Test Example 4: weedkilling efficacy by foliar treatment; L: redroot pigweed; settings: treatment dosage 315 g/ha
How it was run: as §3

barnyard grass [24] = experiment: Test Example 1: weedkilling efficacy, preemergent weed treatment in the submerged state; A: barnyard grass; settings: treatment dosage 252 g/ha
How it was run: as §1

green foxtail [25] = experiment: Test Example 4: weedkilling efficacy by foliar treatment; E: green foxtail; settings: treatment dosage 315 g/ha
How it was run: as §3

Italian ryegrass [26] = experiment: Test Example 4: weedkilling efficacy by foliar treatment; I: Italian ryegrass; settings: treatment dosage 315 g/ha
How it was run: as §3

fig-leafed goosefoot [27] = experiment: Test Example 3: weedkilling efficacy through soil treatment; M: fig-leafed goosefoot; settings: treatment dosage 315 g/ha
How it was run: as §2

corn [28] = experiment: Test Example 4: foliar treatment, effect on crop; c: corn; settings: treatment dosage 315 g/ha
How it was run: as §3

Indian mallow [29] = experiment: Test Example 3: weedkilling efficacy through soil treatment; K: Indian mallow; settings: treatment dosage 315 g/ha
How it was run: as §2

wheat [30] = experiment: Test Example 3: soil treatment, effect on crop; e: wheat; settings: treatment dosage 315 g/ha
How it was run: as §2

corn [31] = experiment: Test Example 3: soil treatment, effect on crop; c: corn; settings: treatment dosage 315 g/ha
How it was run: as §2

redroot pigweed [32] = experiment: Test Example 3: weedkilling efficacy through soil treatment; L: redroot pigweed; settings: treatment dosage 315 g/ha
How it was run: as §2

crabgrass [33] = experiment: Test Example 4: weedkilling efficacy by foliar treatment; D: crabgrass; settings: treatment dosage 315 g/ha
How it was run: as §3

birds-eye speedwell [34] = experiment: Test Example 3: weedkilling efficacy through soil treatment; p: birds-eye speedwell; settings: treatment dosage 315 g/ha
How it was run: as §2

SMILES: CC1=C(c2ccccc2)C(=O)N(C(C)(C)C(=O)Nc2ccnc(Cl)c2)CO1 [B-4-03]
- C (oval-leafed pondweed) weedkilling efficacy grade (oval-leafed pondweed [1]): 5 (weed kill ratio 90% or more, (practically complete withering))
- G (wild oat) weedkilling efficacy grade (wild oat [2]): 4 (weed kill ratio 70% or more, less than 90%)
- a (transplanted rice) effect on crop grade (transplanted rice): 4 (weed kill ratio 70% or more, less than 90%)
- E (green foxtail) weedkilling efficacy grade (green foxtail [3]): 5 (weed kill ratio 90% or more, (practically complete withering))
- d (soybean) effect on crop grade (soybean [4]): 4 (weed kill ratio 70% or more, less than 90%)
- P (birds-eye speedwell) weedkilling efficacy grade (birds-eye speedwell [5]): 4 (weed kill ratio 70% or more, less than 90%)
- K (Indian mallow) weedkilling efficacy grade (Indian mallow [6]): 4 (weed kill ratio 70% or more, less than 90%)
- H (black-grass) weedkilling efficacy grade (black-grass [7]): 5 (weed kill ratio 90% or more, (practically complete withering))
- D (crabgrass) weedkilling efficacy grade (crabgrass [8]): 5 (weed kill ratio 90% or more, (practically complete withering))
- B (bulrush) weedkilling efficacy grade (bulrush [9]): 5 (weed kill ratio 90% or more, (practically complete withering))
- b (directly sown rice) effect on crop grade (directly sown rice): 5 (weed kill ratio 90% or more, (practically complete withering))
- H (black-grass) weedkilling efficacy grade (black-grass [10]): 5 (weed kill ratio 90% or more, (practically complete withering))
- f (beet) effect on crop grade (beet [11]): 4 (weed kill ratio 70% or more, less than 90%)
- N (chickweed) weedkilling efficacy grade (chickweed [12]): 1 (weed kill ratio 5% or more, less than 20%)
- C (oval-leafed pondweed) weedkilling efficacy grade (oval-leafed pondweed [13]): 4 (weed kill ratio 70% or more, less than 90%)
- G (wild oat) weedkilling efficacy grade (wild oat [14]): 5 (weed kill ratio 90% or more, (practically complete withering))
- N (chickweed) weedkilling efficacy grade (chickweed [15]): 3 (weed kill ratio 40% or more, less than 70%)
- M (fig-leafed goosefoot) weedkilling efficacy grade (fig-leafed goosefoot [16]): 3 (weed kill ratio 40% or more, less than 70%)
- I (Italian ryegrass) weedkilling efficacy grade (Italian ryegrass [17]): 5 (weed kill ratio 90% or more, (practically complete withering))
- A (barnyard grass) weedkilling efficacy grade (barnyard grass [18]): 4 (weed kill ratio 70% or more, less than 90%)
- e (wheat) effect on crop grade (wheat [19]): 0 (weed kill ratio 5% or less (practically no effect))
- B (bulrush) weedkilling efficacy grade (bulrush [20]): 5 (weed kill ratio 90% or more, (practically complete withering))
- d (soybean) effect on crop grade (soybean [21]): 3 (weed kill ratio 40% or more, less than 70%)
- O (catchweed) weedkilling efficacy grade (catchweed): 5 (weed kill ratio 90% or more, (practically complete withering))
- f (beet) effect on crop grade (beet [22]): 4 (weed kill ratio 70% or more, less than 90%)
- L (redroot pigweed) weedkilling efficacy grade (redroot pigweed [23]): 3 (weed kill ratio 40% or more, less than 70%)
- A (barnyard grass) weedkilling efficacy grade (barnyard grass [24]): 5 (weed kill ratio 90% or more, (practically complete withering))
- E (green foxtail) weedkilling efficacy grade (green foxtail [25]): 5 (weed kill ratio 90% or more, (practically complete withering))
- I (Italian ryegrass) weedkilling efficacy grade (Italian ryegrass [26]): 5 (weed kill ratio 90% or more, (practically complete withering))
- M (fig-leafed goosefoot) weedkilling efficacy grade (fig-leafed goosefoot [27]): 5 (weed kill ratio 90% or more, (practically complete withering))
- c (corn) effect on crop grade (corn [28]): 4 (weed kill ratio 70% or more, less than 90%)
- K (Indian mallow) weedkilling efficacy grade (Indian mallow [29]): 3 (weed kill ratio 40% or more, less than 70%)
- e (wheat) effect on crop grade (wheat [30]): 1 (weed kill ratio 5% or more, less than 20%)
- c (corn) effect on crop grade (corn [31]): 2 (weed kill ratio 20% or more, less than 40%)
- L (redroot pigweed) weedkilling efficacy grade (redroot pigweed [32]): 5 (weed kill ratio 90% or more, (practically complete withering))
- D (crabgrass) weedkilling efficacy grade (crabgrass [33]): 5 (weed kill ratio 90% or more, (practically complete withering))

SMILES: CC1=C(c2ccccc2)C(=O)N(C(C)(C)C(=O)Nc2ccnc(F)c2)CO1 [B-4-02]
- C (oval-leafed pondweed) weedkilling efficacy grade (oval-leafed pondweed [1]): 5 (weed kill ratio 90% or more, (practically complete withering))
- P (birds-eye speedwell) weedkilling efficacy grade (birds-eye speedwell [34]): 5 (weed kill ratio 90% or more, (practically complete withering))
- G (wild oat) weedkilling efficacy grade (wild oat [2]): 5 (weed kill ratio 90% or more, (practically complete withering))
- a (transplanted rice) effect on crop grade (transplanted rice): 3 (weed kill ratio 40% or more, less than 70%)
- E (green foxtail) weedkilling efficacy grade (green foxtail [3]): 5 (weed kill ratio 90% or more, (practically complete withering))
- d (soybean) effect on crop grade (soybean [4]): 4 (weed kill ratio 70% or more, less than 90%)
- P (birds-eye speedwell) weedkilling efficacy grade (birds-eye speedwell [5]): 5 (weed kill ratio 90% or more, (practically complete withering))
- K (Indian mallow) weedkilling efficacy grade (Indian mallow [6]): 3 (weed kill ratio 40% or more, less than 70%)
- H (black-grass) weedkilling efficacy grade (black-grass [7]): 5 (weed kill ratio 90% or more, (practically complete withering))
- D (crabgrass) weedkilling efficacy grade (crabgrass [8]): 5 (weed kill ratio 90% or more, (practically complete withering))
- B (bulrush) weedkilling efficacy grade (bulrush [9]): 5 (weed kill ratio 90% or more, (practically complete withering))
- b (directly sown rice) effect on crop grade (directly sown rice): 5 (weed kill ratio 90% or more, (practically complete withering))
- H (black-grass) weedkilling efficacy grade (black-grass [10]): 5 (weed kill ratio 90% or more, (practically complete withering))
- N (chickweed) weedkilling efficacy grade (chickweed [12]): 3 (weed kill ratio 40% or more, less than 70%)
- C (oval-leafed pondweed) weedkilling efficacy grade (oval-leafed pondweed [13]): 4 (weed kill ratio 70% or more, less than 90%)
- G (wild oat) weedkilling efficacy grade (wild oat [14]): 5 (weed kill ratio 90% or more, (practically complete withering))
- N (chickweed) weedkilling efficacy grade (chickweed [15]): 4 (weed kill ratio 70% or more, less than 90%)
- M (fig-leafed goosefoot) weedkilling efficacy grade (fig-leafed goosefoot [16]): 4 (weed kill ratio 70% or more, less than 90%)
- I (Italian ryegrass) weedkilling efficacy grade (Italian ryegrass [17]): 5 (weed kill ratio 90% or more, (practically complete withering))
- A (barnyard grass) weedkilling efficacy grade (barnyard grass [18]): 3 (weed kill ratio 40% or more, less than 70%)
- e (wheat) effect on crop grade (wheat [19]): 0 (weed kill ratio 5% or less (practically no effect))
- B (bulrush) weedkilling efficacy grade (bulrush [20]): 5 (weed kill ratio 90% or more, (practically complete withering))
- d (soybean) effect on crop grade (soybean [21]): 1 (weed kill ratio 5% or more, less than 20%)
- O (catchweed) weedkilling efficacy grade (catchweed): 5 (weed kill ratio 90% or more, (practically complete withering))
- f (beet) effect on crop grade (beet [22]): 3 (weed kill ratio 40% or more, less than 70%)
- L (redroot pigweed) weedkilling efficacy grade (redroot pigweed [23]): 4 (weed kill ratio 70% or more, less than 90%)
- A (barnyard grass) weedkilling efficacy grade (barnyard grass [24]): 5 (weed kill ratio 90% or more, (practically complete withering))
- E (green foxtail) weedkilling efficacy grade (green foxtail [25]): 5 (weed kill ratio 90% or more, (practically complete withering))
- I (Italian ryegrass) weedkilling efficacy grade (Italian ryegrass [26]): 5 (weed kill ratio 90% or more, (practically complete withering))
- M (fig-leafed goosefoot) weedkilling efficacy grade (fig-leafed goosefoot [27]): 5 (weed kill ratio 90% or more, (practically complete withering))
- c (corn) effect on crop grade (corn [28]): 4 (weed kill ratio 70% or more, less than 90%)
- K (Indian mallow) weedkilling efficacy grade (Indian mallow [29]): 4 (weed kill ratio 70% or more, less than 90%)
- e (wheat) effect on crop grade (wheat [30]): 1 (weed kill ratio 5% or more, less than 20%)
- c (corn) effect on crop grade (corn [31]): 4 (weed kill ratio 70% or more, less than 90%)
- L (redroot pigweed) weedkilling efficacy grade (redroot pigweed [32]): 5 (weed kill ratio 90% or more, (practically complete withering))
- D (crabgrass) weedkilling efficacy grade (crabgrass [33]): 5 (weed kill ratio 90% or more, (practically complete withering))
